Key:
Assay in all cases: relative viability (nuclei count vs DMSO), 5 days (fraction); higher = more cells survive
[1] = tested on: SK-LU-1
In short: (§1)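 After 5 days of treatment, lung cancer cells in 1536-well plates were fixed and stained in a single step (final 0.05% Triton X-100, 1% formaldehyde, 1 ug/ml Hoechst) and their nuclei counted on 4× images. Treatment had been applied by pin tool the day after seeding as one drug alone or as a fixed anchor-drug dose with five library-drug doses (not always all listed) in √10 steps. Relative viability is the nuclei count of treated wells divided by that of vehicle wells, and values are medians of duplicate plates.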

[2] = tested on: NCI-H2126
In short: as §1

[3] = tested on: NCI-H23
In short: as §1

[4] = tested on: ABC-1
In short: as §1

[5] = tested on: NCI-H1944
In short: as §1

[6] = tested on: EMC-BAC-2
In short: as §1

[7] = tested on: NCI-H2023
In short: as §1

[8] = tested on: HCC-78
In short: as §1

[9] = tested on: LC-2-ad
In short: as §1

[10] = tested on: HCC-15
In short: as §1

[11] = tested on: HOP-62
In short: as §1

[12] = tested on: NCI-H838
In short: as §1

[13] = tested on: NCI-H1793
In short: as §1

[14] = tested on: ChaGo-K-1
In short: as §1

[15] = tested on: NCI-H2228
In short: as §1

[16] = tested on: NCI-H1395
In short: as §1

[17] = tested on: NCI-H2405
In short: as §1

[18] = tested on: COR-L23
In short: as §1

[19] = tested on: NCI-H358
In short: as §1

[20] = tested on: NCI-H1993
In short: as §1

[21] = tested on: HARA
In short: as §1

[22] = tested on: HCC-366
In short: as §1

Structure (SMILES): CC(=O)O[C@@]12CO[C@@H]1C[C@H](O)[C@@]1(C)C(=O)[C@H](O)C3=C(C)[C@@H](OC(=O)[C@H](O)[C@@H](NC(=O)OC(C)(C)C)c4ccccc4)C[C@@](O)([C@@H](OC(=O)c4ccccc4)[C@H]21)C3(C)C [Docetaxel] + COc1cccc2cc(-c3nc([C@H]4CC[C@H](C(=O)O)CC4)n4ncnc(N)c34)[nH]c12 [OSI-027] (partner 0.5 µM)
- relative viability ([1]; first compound 0.0002 µM): 0.353
- relative viability ([1]; first compound 0.000632 µM): 0.26
- relative viability ([1]; first compound 0.002 µM): 0.228
- relative viability ([1]; first compound 0.006325 µM): 0.197
- relative viability ([1]; first compound 0.02 µM): 0.144
- relative viability ([2]; first compound 0.0002 µM): 0.742
- relative viability ([2]; first compound 0.000632 µM): 0.622
- relative viability ([2]; first compound 0.002 µM): 0.281
- relative viability ([2]; first compound 0.006325 µM): 0.297
- relative viability ([2]; first compound 0.02 µM): 0.221
- relative viability ([3]; first compound 0.0002 µM): 0.804
- relative viability ([3]; first compound 0.000632 µM): 0.587
- relative viability ([3]; first compound 0.002 µM): 0.238
- relative viability ([3]; first compound 0.006325 µM): 0.168
- relative viability ([3]; first compound 0.02 µM): 0.107
- relative viability ([4]; first compound 0.0002 µM): 0.443
- relative viability ([4]; first compound 0.000632 µM): 0.562
- relative viability ([4]; first compound 0.002 µM): 0.289
- relative viability ([4]; first compound 0.006325 µM): 0.178
- relative viability ([4]; first compound 0.02 µM): 0.186
- relative viability ([5]; first compound 0.0002 µM): 0.38
- relative viability ([5]; first compound 0.000632 µM): 0.423
- relative viability ([5]; first compound 0.002 µM): 0.26
- relative viability ([5]; first compound 0.02 µM): 0.139
- relative viability ([6]; first compound 0.0002 µM): 0.424
- relative viability ([6]; first compound 0.000632 µM): 0.327
- relative viability ([6]; first compound 0.002 µM): 0.257
- relative viability ([6]; first compound 0.006325 µM): 0.25
- relative viability ([6]; first compound 0.02 µM): 0.172
- relative viability ([7]; first compound 0.0002 µM): 0.341
- relative viability ([7]; first compound 0.000632 µM): 0.339
- relative viability ([7]; first compound 0.002 µM): 0.131
- relative viability ([7]; first compound 0.006325 µM): 0.0963
- relative viability ([7]; first compound 0.02 µM): 0.0554
- relative viability ([8]; first compound 0.0002 µM): 0.321
- relative viability ([8]; first compound 0.000632 µM): 0.308
- relative viability ([8]; first compound 0.002 µM): 0.315
- relative viability ([8]; first compound 0.006325 µM): 0.278
- relative viability ([8]; first compound 0.02 µM): 0.284
- relative viability ([9]; first compound 0.0002 µM): 0.598
- relative viability ([9]; first compound 0.000632 µM): 0.589
- relative viability ([9]; first compound 0.002 µM): 0.441
- relative viability ([9]; first compound 0.006325 µM): 0.415
- relative viability ([10]; first compound 0.0002 µM): 0.542
- relative viability ([10]; first compound 0.000632 µM): 0.246
- relative viability ([10]; first compound 0.002 µM): 0.205
- relative viability ([10]; first compound 0.006325 µM): 0.219
- relative viability ([10]; first compound 0.02 µM): 0.133
- relative viability ([11]; first compound 0.0002 µM): 0.835
- relative viability ([11]; first compound 0.000632 µM): 0.631
- relative viability ([11]; first compound 0.002 µM): 0.369
- relative viability ([12]; first compound 0.0002 µM): 0.331
- relative viability ([12]; first compound 0.000632 µM): 0.422
- relative viability ([12]; first compound 0.002 µM): 0.259
- relative viability ([12]; first compound 0.006325 µM): 0.16
- relative viability ([12]; first compound 0.02 µM): 0.134
- relative viability ([13]; first compound 0.0002 µM): 0.282
- relative viability ([13]; first compound 0.000632 µM): 0.275
- relative viability ([13]; first compound 0.002 µM): 0.227
- relative viability ([13]; first compound 0.006325 µM): 0.181
- relative viability ([13]; first compound 0.02 µM): 0.15
- relative viability ([14]; first compound 0.0002 µM): 0.554
- relative viability ([14]; first compound 0.000632 µM): 0.459
- relative viability ([14]; first compound 0.002 µM): 0.301
- relative viability ([14]; first compound 0.006325 µM): 0.23
- relative viability ([14]; first compound 0.02 µM): 0.129
- relative viability ([15]; first compound 0.0002 µM): 0.456
- relative viability ([15]; first compound 0.000632 µM): 0.147
- relative viability ([15]; first compound 0.002 µM): 0.159
- relative viability ([15]; first compound 0.006325 µM): 0.161
- relative viability ([15]; first compound 0.02 µM): 0.112
- relative viability ([16]; first compound 0.0002 µM): 0.609
- relative viability ([16]; first compound 0.000632 µM): 0.657
- relative viability ([16]; first compound 0.002 µM): 0.538
- relative viability ([16]; first compound 0.006325 µM): 0.373
- relative viability ([16]; first compound 0.02 µM): 0.272
- relative viability ([17]; first compound 0.0002 µM): 0.666
- relative viability ([17]; first compound 0.000632 µM): 0.628
- relative viability ([17]; first compound 0.002 µM): 0.422
- relative viability ([17]; first compound 0.006325 µM): 0.333
- relative viability ([17]; first compound 0.02 µM): 0.255
- relative viability ([18]; first compound 0.0002 µM): 0.715
- relative viability ([18]; first compound 0.000632 µM): 0.689
- relative viability ([18]; first compound 0.002 µM): 0.444
- relative viability ([18]; first compound 0.006325 µM): 0.147
- relative viability ([18]; first compound 0.02 µM): 0.116
- relative viability ([19]; first compound 0.0002 µM): 0.738
- relative viability ([19]; first compound 0.000632 µM): 0.23
- relative viability ([19]; first compound 0.006325 µM): 0.0795
- relative viability ([19]; first compound 0.02 µM): 0.0599
- relative viability ([20]; first compound 0.0002 µM): 0.556
- relative viability ([20]; first compound 0.000632 µM): 0.616
- relative viability ([20]; first compound 0.002 µM): 0.6
- relative viability ([20]; first compound 0.006325 µM): 0.501
- relative viability ([20]; first compound 0.02 µM): 0.414
- relative viability ([21]; first compound 0.0002 µM): 0.341
- relative viability ([21]; first compound 0.000632 µM): 0.159
- relative viability ([21]; first compound 0.002 µM): 0.0997
- relative viability ([21]; first compound 0.006325 µM): 0.106
- relative viability ([21]; first compound 0.02 µM): 0.0539
- relative viability ([22]; first compound 0.0002 µM): 0.917
- relative viability ([22]; first compound 0.000632 µM): 0.553
- relative viability ([22]; first compound 0.002 µM): 0.0467
- relative viability ([22]; first compound 0.006325 µM): 0.0385
- relative viability ([22]; first compound 0.02 µM): 0.0274

— the supplement of paper PMC10307832
